Laboratory results from patent US8808737B2 (Endo Pharmaceuticals Inc., priority 2007, dated 2014).

Assays:
[1] = Example 5: plasma pharmacokinetics of oxymorphone and metabolites after EN3202 in renal impairment vs healthy controls; settings: for Mean bioavailability ratio (90% confidence interval) for AUC relative to controls / Mean bioavailability ratio (90% confidence interval) for Cmax relative to controls: ln-transformed; for AUC: AUC in plasma (mean, untransformed); for AUC(0-t): AUCT in plasma (mean, untransformed); for Cmax: Cmax in plasma (mean, untransformed); for half-life: t½, terminal elimination half-life in plasma (mean)
Description: (§1) Attempts were made to match controls with the renal impaired patients with respect to age, gender, and weight. […] Naltrexone (50 mg) was administered on the evening prior to administration of the EN3202 dose.
In order to protect the subjects from potential opioid-related adverse events, a single 50-mg dose of the opioid antagonist ReVia® (naltrexone HCl) was administered at 20:00 the evening prior to administration of test medication. […] Subjects continued fasting until four (4) hours after dose administration. The subjects remained in an upright posture (sitting or standing) for 1 hour after dose administration. All doses were administered with 240 mL of water (room temperature), and the subjects were instructed to drink all the water.
(§2) Plasma and urine pharmacokinetic variables were calculated from the concentration data using standard, non-compartmental methods as outlined in the following table.
All pharmacokinetic results are summarized using appropriate descriptive statistics. Continuous variables were compared between renally impaired and control groups using appropriate parametric statistics. 90% confidence intervals were calculated for the differences or ratios between the renally impaired and control groups. In addition, the association between oral clearance (and other pharmacokinetic variables) and the severity of renal insufficiency (based on creatinine clearance) was explored.

[2] = Example 5: urinary excretion of oxymorphone and metabolites after EN3202 in renal impairment; settings: for Mean (SD) Percent of Dose Recovered in Urine (0-120 hours): single oral 20-mg dose of EN3202; for half-life: human, urine, oral, 20 mg, Mean urinary elimination half-life
Description: as §1
Each subject was to be instructed to void at the end of each interval (so that each collection interval began with an empty bladder). The void prior to administration of the test medication (time 0) served as the pre-dose blank and was not be included in the collection container.
as §2

[3] = Example 5: correlation of oxymorphone and metabolite plasma AUC / oral clearance with creatinine clearance; format: in vivo, human; settings: linear regression
From the text: Creatinine clearance (ClCR) was estimated at screening using the following Cockroft and Gault^8 equation: […]
All pharmacokinetic results are summarized using appropriate descriptive statistics.
The potential association between plasma AUC and creatinine clearance was explored using linear regression techniques and the results are summarized in Table 36 and FIG. 16.

[4] = Pain levels (VAS, categorical scale) vs plasma oxymorphone and 6-hydroxyoxymorphone after a single dose; format: in vivo, human; settings: single dose of oxymorphone, FIGS. 1-4
Description: For these tests, pain was measured using a Visual Analog Scale (VAS) or a Categorical Scale. The VAS scales consisted of a horizontal line, 100 mm in length. The left-hand end of the scale (0 mm) was marked with the descriptor “No Pain” and the right-hand end of the scale (100 mm) was marked with the descriptor “Extreme Pain”. Patients indicated their level of pain by making a vertical mark on the line. The VAS score was equal to the distance (in mm) from the left-hand end of the scale to the patient's mark. For the categorical scale, patients completed the following statement, “My pain at this time is” using the scale None=0, Mild=1, Moderate=2, or Severe=3.

[5] = in vivo; cited from earlier work
[6] = EN3202 20 mg, mild renal impairment
[7] = EN3202 20 mg, moderate renal impairment
[8] = EN3202 20 mg, severe renal impairment
[9] = human, plasma, oral, 20 mg, single 20 mg dose of EN3202, Healthy Controls
[10] = human, plasma, oral, 20 mg, single 20 mg dose of EN3202, Mild Impairment
[11] = human, plasma, oral, 20 mg, single 20 mg dose of EN3202, Moderate Impairment
[12] = human, plasma, oral, 20 mg, single 20 mg dose of EN3202, Severe Impairment
[13] = single 20 mg dose of EN3202, Moderate Impairment
[14] = single 20 mg dose of EN3202, Severe Impairment
[15] = AUC normalized for body weight vs creatinine clearance
[16] = oral clearance vs creatinine clearance
[17] = plasma AUC vs creatinine clearance

CN1CC[C@]23c4c5ccc(O)c4O[C@H]2C(=O)CC[C@@]3(O)[C@H]1C5 [Oxymorphone, 14-hydroxydihydromorphinone, reference compound]
Mean bioavailability ratio (90% confidence interval) for AUC relative to controls [1, 6]: 1.2559 (0.8566-1.8414)
Mean bioavailability ratio (90% confidence interval) for Cmax relative to controls [1, 6]: 1.3772 (0.9359-2.0265)
Mean bioavailability ratio (90% confidence interval) for AUC relative to controls [1, 7]: 1.5722 (1.0723-2.3051)
Mean bioavailability ratio (90% confidence interval) for Cmax relative to controls [1, 7]: 1.6494 (1.1209-2.4270)
Mean AUC increased relative to healthy controls [1, 8]: 1.7 fold
Mean bioavailability ratio (90% confidence interval) for AUC relative to controls [1, 8]: 1.6529 (1.1274-2.4234)
Mean bioavailability ratio (90% confidence interval) for Cmax relative to controls [1, 8]: 1.8042 (1.2261-2.6549)
Mean increase in plasma AUC values relative to healthy controls ([1]; EN3202 20 mg, subjects with creatinine clearance values, 30 mL/min): approximately 1.8 fold
Tmax ([1]; human, plasma, oral, 20 mg): 3.5 h
AUC [1, 9]: 0.0189 µg·h/mL
AUC [1, 10]: 0.0217 µg·h/mL
AUC [1, 11]: 0.0279 µg·h/mL
AUC [1, 12]: 0.0345 µg·h/mL
AUC(0-t) [1, 9]: 0.0158 µg·h/mL
AUC(0-t) [1, 10]: 0.019 µg·h/mL
AUC(0-t) [1, 11]: 0.0261 µg·h/mL
AUC(0-t) [1, 12]: 0.0297 µg·h/mL
Cmax [1, 9]: 1.16 ng/mL
Cmax [1, 10]: 1.47 ng/mL
Cmax [1, 11]: 1.75 ng/mL
Cmax [1, 12]: 2.04 ng/mL
half-life [1, 9]: 13.5 h
half-life [1, 10]: 12.4 h
half-life [1, 12]: 13.3 h
CLo, clearance after oral administration (mean) ([1]; single 20 mg dose of EN3202, Healthy Controls): 22.07 L/min
CLo, clearance after oral administration (mean) ([1]; single 20 mg dose of EN3202, Mild Impairment): 16.14 L/min
CLo, clearance after oral administration (mean) [1, 13]: 13.53 L/min
t½, terminal elimination half-life in plasma (mean) [1, 13]: 9.92 h
AUC in plasma (mean, untransformed) [1, 14]: 0.03246 µg·h/mL
CLo, clearance after oral administration (mean) [1, 14]: 13.79 L/min
Tmax in plasma (median) [1, 14]: 2.0 h
Mean percentage of the administered dose excreted in the urine ([2]; EN3202 20 mg, 0-120 hours, severe renal impairment): 0.38%
Mean percentage of the dose excreted in the urine unchanged, reduced relative to healthy controls [2, 8]: approximately 50%
Mean (SD) Percent of Dose Recovered in Urine (0-120 hours) ([2]; healthy controls): 0.77 (0.36) %
half-life ([2]; EN3202 20 mg, healthy controls): 12.5 h
half-life [2, 6]: 12.1 h
half-life [2, 7]: 13.9 h
half-life [2, 8]: 21 h
Mean (SD) Percent of Dose Recovered in Urine (0-120 hours) ([2]; subjects with mild renal impairment): 1.37 (2.10) %
Mean (SD) Percent of Dose Recovered in Urine (0-120 hours) ([2]; subjects with moderate renal impairment): 0.66 (0.29) %
Mean (SD) Percent of Dose Recovered in Urine (0-120 hours) ([2]; subjects with severe renal impairment): 0.38 (0.19) %
AUC/wt vs. CLCR: R-square [3, 15]: 0.2898
AUC/wt vs. CLCR: Slope [3, 15]: −0.0013
CL/F vs. CLCR: R-square [3, 16]: 0.2592
CL/F vs. CLCR: Slope [3, 16]: 0.1229
AUC vs. CLCR: R-square [3, 17]: 0.2400
AUC vs. CLCR: Slope [3, 17]: −0.1852
Relation between pain relief and blood plasma level [4]: there is a correlation
Oral bioavailability [5]: about 10%
